Test results: patent US12509460B2 (Skyhawk Therapeutics, Inc., priority 2019, dated 2025)
Where two headings read alike, the source gives them in different places.

Assays:
[1] = system: SMN FL and SMN Δ7 in spinal muscular atrophy (SMA) patient fibroblasts (GM03813, Coriell); assay: Quantitative splicing assay (SMN), qPCR; format: cell-based, human; settings: SMA patient fibroblasts GM03813, 24 h, qPCR, read-out: SMN2 Splicing FL EC50
Description: Spinal muscular atrophy (SMA) patient fibroblasts (GM03813, Coriell) are plated in 96-well plates at 50,000 cells/well. […] Treated cells are lysed and cDNA synthesized using the Fast Advanced Cells-to-Ct kit (Thermofisher A35378) according to the manufacturer's instructions. 2 μL of each cDNA are used in qPCR reactions. […] Reactions are run in a Quant Studio 6 qPCR instrument with default settings.

[2] = system: SMN protein in spinal muscular atrophy (SMA) patient fibroblasts (GM03813, Coriell); assay: SMN protein assay, Mesoscale Discovery (MSD); format: cell-based, human; settings: for EC50: read-out: SMN2 protein EC50
Method in brief: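 Absolute SMN levels were quantified by MSD against an SMN protein standard curve (1 μg/ml to 19.5 pg/ml) run on each plate. Samples were lysates of GM03813 patient fibroblasts (7000 cells/well) treated 48 hours with compound doses from 2.5 μM down to 0.6 nM.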

[3] = system: MDR1-MDCK cell monolayers; assay: Blood-brain-barrier (BBB) penetration potential via MDCK-MDR1 permeability assay
[4] = Quantitative splicing assay (HTT), qPCR; format: cell-based, human; settings: Homo sapiens, GM04724, 24 h, GM04724 lymphoblasts, read-out: HTT Splicing: E49-50 EC50
Description: Example A9: Quantitative Splicing Assay (HTT)
GM04724 (CAG 70/20) Huntington's disease patient lymphoblasts (Coriell) are plated in 96-well v-bottom plates at 50,000 cells/well. Immediately after plating, cells are dosed with compound for 24 h at concentrations ranging from 2.5 uM to 0.15 nM (0.1% DMSO). Treated cells are lysed and cDNA synthesized using the Fast Advanced Cells-to-Ct kit (Thermofisher A35378) according to the manufacturer's instructions. 2 uL of each cDNA are used in qPCR reactions to confirm the compound-induced inclusion of a cryptic exon within intron 49 of the Huntingtin (HTT) transcripts. The qPCR reactions are prepared in 384-well plates in 10 uL volume, using TagMan™ Fast Advanced Master Mix [ThermoFisher, 4444965] with primers and probes shown in the table below. Reactions are run in a Quant studio 6 qPCR instrument with default settings.

[5] = system: mHTT protein in GM04724 (CAG 70/20) Huntington's disease patient lymphoblast cells; assay: mHTT protein assay, 2B7-MW1 assay via Mesoscale Discovery (MSD); format: cell-based, human
Method in brief: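 Signal from the 2B7-MW1 antibody pair on MSD, rising with polyQ length and smaller HTT fragments, measured mHTT after 48 h compound exposure (0.6 nM–10 μM) in GM04724 cells. A parallel replicate plate gave CellTiter Glo viability.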

MDR1 (P-gp) = assay: Blood-brain-barrier (BBB) penetration potential via MDCK-MDR1 permeability assay; settings: dog; for Papp A→B at 120 min, 5 μM: MDCK-MDR1, pH 7.4, MDCK-MDR1: Papp A-B; for Papp B→A at 120 min, 5 μM: MDCK-MDR1, pH 7.4, MDCK-MDR1: Papp B-A
MDR1 = assay: as above; settings: dog, MDCK-MDR1, pH 7.4, MDCK-MDR1: Efflux
[6] = SMA patient fibroblasts GM03813, 48 hours, MSD
[7] = GM04724 Huntington's disease patient lymphoblasts

## COc1cc(-c2ccc(-c3ccc(N(C)[C@H]4CC5N[C@@H](C4)CC5(F)F)nn3)c(O)c2)cnn1 (single isomer, unassigned) [Compound 2B]
[1]
  EC50: 0.01 to 15 nM
[2]; [6]
  SMN2 protein EC50: E (501 ≤ E ≤ 10.000)
[3]; A-B direction
  MDCK-MDR1: % Recov A-B: 54%
  MDCK-MDR1: Papp A-B: 9.99 10^−6, cm/s
[3]; B-A direction
  MDCK-MDR1: % Recov B-A: 84%
  MDCK-MDR1: Papp B-A: 52.8 10^−6, cm/s
[3]; efflux ratio
  MDCK-MDR1: Efflux: 5
[4]; qPCR
  EC50: 0.01 to 15 nM
[5]; [7]
  EC50: 0.01 to 15 nM

## CN(c1ccc(-c2cc3cnccc3cc2O)nn1)[C@@H]1C[C@H]2CC[C@H](N2)[C@@H]1F (single isomer, unassigned) [Compound 7A]
[1]
  EC50: 16 to 50 nM
[2]; [6]
  EC50: 0.01 to 15 nM
MDR1 (P-gp); A-B direction
  Papp A→B at 120 min, 5 μM: 3.31 ×10⁻⁶ cm/s
MDR1 (P-gp); B-A direction
  Papp B→A at 120 min, 5 μM: 20.1 ×10⁻⁶ cm/s
[3]; A-B direction
  MDCK-MDR1: % Recov A-B: 65%
[3]; B-A direction
  MDCK-MDR1: % Recov B-A: 75%
MDR1; efflux ratio
  efflux ratio at 120 min, 5 μM: 6
[4]; qPCR
  EC50: 16 to 50 nM
[5]; [7]
  EC50: 0.01 to 15 nM

## Cc1ccc(-c2ccc(-c3ccc(N(C)[C@H]4C[C@@H]5CC[C@@H](N5)[C@H]4F)nn3)c(O)c2)nn1 (single isomer, unassigned) [Compound 25B]
[1]; Homo sapiens, Fibroblast, 24 h
  EC50: 16 to 50 nM
[2]; [6]
  EC50: 0.01 to 15 nM
MDR1 (P-gp); A-B direction
  Papp A→B at 120 min, 5 μM: 1.61 ×10⁻⁶ cm/s
MDR1 (P-gp); B-A direction
  Papp B→A at 120 min, 5 μM: 46.8 ×10⁻⁶ cm/s
[3]; A-B direction
  MDCK-MDR1: % Recov A-B: 105%
[3]; B-A direction
  MDCK-MDR1: % Recov B-A: 108%
MDR1; efflux ratio
  efflux ratio at 120 min, 5 μM: 29
[4]; qPCR
  EC50: 16 to 50 nM
[5]; [7]
  EC50: 16 to 50 nM

## CN(c1ccc(-c2ccc(-c3cc[nH]n3)cc2O)nn1)[C@@H]1C[C@H]2CC[C@H](N2)[C@@H]1F (single isomer, unassigned) [Compound 33A]
[1]; Homo sapiens, Fibroblast, 24 h
  EC50: 51 to 100 nM
[2]; [6]
  EC50: 16 to 50 nM
MDR1 (P-gp); A-B direction
  Papp A→B at 120 min, 5 μM: 1.33 ×10⁻⁶ cm/s
MDR1 (P-gp); B-A direction
  Papp B→A at 120 min, 5 μM: 40.7 ×10⁻⁶ cm/s
[3]; A-B direction
  MDCK-MDR1: % Recov A-B: 95%
[3]; B-A direction
  MDCK-MDR1: % Recov B-A: 105%
MDR1; efflux ratio
  efflux ratio at 120 min, 5 μM: 31
[4]; qPCR
  EC50: 16 to 50 nM
[5]; [7]
  EC50: 16 to 50 nM

## CN(c1ccc(-c2ccc(-c3cc[nH]n3)cc2O)nn1)[C@H]1C[C@@H]2CC[C@@H](N2)[C@H]1F (single isomer, unassigned) [Compound 33B]
[1]; Homo sapiens, Fibroblast, 24 h
  EC50: 16 to 50 nM
[2]; [6]
  EC50: 0.01 to 15 nM
MDR1 (P-gp); A-B direction
  Papp A→B at 120 min, 5 μM: 1.75 ×10⁻⁶ cm/s
MDR1 (P-gp); B-A direction
  Papp B→A at 120 min, 5 μM: 53 ×10⁻⁶ cm/s
[3]; A-B direction
  MDCK-MDR1: % Recov A-B: 87%
[3]; B-A direction
  MDCK-MDR1: % Recov B-A: 82%
MDR1; efflux ratio
  efflux ratio at 120 min, 5 μM: 30
[4]; qPCR
  EC50: 0.01 to 15 nM
[5]; [7]
  EC50: 0.01 to 15 nM

## CN(c1ccc(-c2ccc(-c3ccn(C)n3)cc2O)nn1)[C@@H]1C[C@H]2CC[C@H](N2)[C@@H]1F (single isomer, unassigned) [Compound 36A]
[1]; Homo sapiens, Fibroblast, 24 h
  EC50: 16 to 50 nM
[2]; [6]
  EC50: 0.01 to 15 nM
MDR1 (P-gp); A-B direction
  Papp A→B at 120 min, 5 μM: 3.68 ×10⁻⁶ cm/s
MDR1 (P-gp); B-A direction
  Papp B→A at 120 min, 5 μM: 38.6 ×10⁻⁶ cm/s
[3]; A-B direction
  MDCK-MDR1: % Recov A-B: 68%
[3]; B-A direction
  MDCK-MDR1: % Recov B-A: 82%
MDR1; efflux ratio
  efflux ratio at 120 min, 5 μM: 10
[4]; qPCR
  EC50: 16 to 50 nM
[5]; [7]
  EC50: 16 to 50 nM

## Cc1nc2cc(O)c(-c3ccc(N(C)[C@H]4C[C@@H]5CC[C@@H](N5)[C@H]4F)nn3)cc2o1 (single isomer, unassigned) [Compound 40B]
[1]; Homo sapiens, Fibroblast, 24 h
  EC50: 16 to 50 nM
MDR1 (P-gp); A-B direction
  Papp A→B at 120 min, 5 μM: 4.71 ×10⁻⁶ cm/s
MDR1 (P-gp); B-A direction
  Papp B→A at 120 min, 5 μM: 75.8 ×10⁻⁶ cm/s
[3]; A-B direction
  MDCK-MDR1: % Recov A-B: 67%
[3]; B-A direction
  MDCK-MDR1: % Recov B-A: 99%
MDR1; efflux ratio
  efflux ratio at 120 min, 5 μM: 16
[4]; qPCR
  EC50: 0.01 to 15 nM
[5]; [7]
  EC50: 0.01 to 15 nM

## CN(c1ccc(-c2cc3ncn(C)c(=O)c3cc2O)nn1)[C@@H]1C[C@H]2CC[C@H](N2)[C@@H]1F [Compound 51A, 7-(6-(((1S,2S,3R,5R)-2-fluoro-8-azabicyclo[3.2.1]octan-3-yl)(methyl)amino)pyridazin-3-yl)-6-hydroxy-3-methylquinazolin-4(3H)-one]
[2]; [6]
  SMN2 protein EC50: E (501 ≤ E ≤ 10.000)
MDR1 (P-gp); A-B direction
  Papp A→B at 120 min, 5 μM: 0.81 ×10⁻⁶ cm/s
MDR1 (P-gp); B-A direction
  Papp B→A at 120 min, 5 μM: 38 ×10⁻⁶ cm/s
[3]; A-B direction
  MDCK-MDR1: % Recov A-B: 94%
[3]; B-A direction
  MDCK-MDR1: % Recov B-A: 86%
MDR1; efflux ratio
  efflux ratio at 120 min, 5 μM: 47
[4]; qPCR
  EC50: 0.01 to 15 nM
[5]; [7]
  EC50: 0.01 to 15 nM

## CN(c1ccc(-c2cc3ccncc3s2)nn1)[C@@H]1C[C@H]2CC[C@H](N2)[C@@H]1F [Compound 65A, (1S,2S,3R,5R)-2-fluoro-N-methyl-N-(6-(thieno[2,3-c]pyridin-2-yl)pyridazin-3-yl)-8-azabicyclo[3.2.1]octan-3-amine]
[2]; [6]
  EC50: 51 to 100 nM
MDR1 (P-gp); A-B direction
  Papp A→B at 120 min, 5 μM: 5.82 ×10⁻⁶ cm/s
MDR1 (P-gp); B-A direction
  Papp B→A at 120 min, 5 μM: 50.5 ×10⁻⁶ cm/s
[3]; A-B direction
  MDCK-MDR1: % Recov A-B: 94%
[3]; B-A direction
  MDCK-MDR1: % Recov B-A: 93%
MDR1; efflux ratio
  efflux ratio at 120 min, 5 μM: 9
[4]; qPCR
  EC50: 10 to 501 nM
[5]; [7]
  EC50: 101 to 500 nM

## CN(c1ccc(-c2cc3ccncc3s2)nn1)[C@H]1C[C@@H]2CC[C@@H](N2)[C@H]1F [Compound 65B, (1R,2R,3S,5S)-2-fluoro-N-methyl-N-(6-(thieno[2,3-c]pyridin-2-yl)pyridazin-3-yl)-8-azabicyclo[3.2.1]octan-3-amine]
[2]; [6]
  EC50: 16 to 50 nM
MDR1 (P-gp); A-B direction
  Papp A→B at 120 min, 5 μM: 6.9 ×10⁻⁶ cm/s
MDR1 (P-gp); B-A direction
  Papp B→A at 120 min, 5 μM: 54.6 ×10⁻⁶ cm/s
[3]; A-B direction
  MDCK-MDR1: % Recov A-B: 84%
[3]; B-A direction
  MDCK-MDR1: % Recov B-A: 87%
MDR1; efflux ratio
  efflux ratio at 120 min, 5 μM: 8
[4]; qPCR
  EC50: 101 to 500 nM
[5]; [7]
  EC50: 51 to 100 nM

## CN(c1ccc(-c2cc(C#N)c(F)cc2O)nn1)[C@H]1C[C@@H]2CC[C@@H](N2)[C@H]1F [Compound 72B, 2-fluoro-5-(6-(((1R,2R,3S,5S)-2-fluoro-8-azabicyclo[3.2.1]octan-3-yl)(methyl)amino)pyridazin-3-yl)-4-hydroxybenzonitrile]
[2]; [6]
  EC50: 51 to 100 nM
MDR1 (P-gp); A-B direction
  Papp A→B at 120 min, 5 μM: 10.9 ×10⁻⁶ cm/s
MDR1 (P-gp); B-A direction
  Papp B→A at 120 min, 5 μM: 36.4 ×10⁻⁶ cm/s
[3]; A-B direction
  MDCK-MDR1: % Recov A-B: 78%
[3]; B-A direction
  MDCK-MDR1: % Recov B-A: 74%
MDR1; efflux ratio
  efflux ratio at 120 min, 5 μM: 3
[4]; qPCR
  EC50: 101 to 500 nM
[5]; [7]
  EC50: 101 to 500 nM

## CN(c1ccc(-c2cc3cnccc3cc2O)nn1)[C@@H]1C[C@H]2CCC[C@H](N2)[C@@H]1F [Compound 121A, 7-(6-(((1S,2S,3R,5R)-2-fluoro-9-azabicyclo[3.3.1]nonan-3-yl)(methyl)amino)pyridazin-3-yl)isoquinolin-6-ol]
[2]; SMA patient fibroblasts (GM03813), 48 hours
  SMN2 protein EC50: E (501 ≤ E ≤ 10.000)
MDR1 (P-gp); A-B
  Papp A→B at 120 min, 5 μM: 2.65 ×10⁻⁶ cm/s
MDR1 (P-gp); B-A
  Papp B→A at 120 min, 5 μM: 29.8 ×10⁻⁶ cm/s
[3]; A-B
  MDCK-MDR1: % Recov A-B: 81%
[3]; B-A
  MDCK-MDR1: % Recov B-A: 95%
MDR1
  efflux ratio at 120 min, 5 μM: 11
[4]
  EC50: 51 to 100 nM
[5]; GM04724 (CAG 70/20) Huntington's disease patient lymphoblasts
  EC50: 16 to 50 nM
